# Patent publication US8791132B2, “Compounds and methods for treatment of hypertension” (Medivation Technologies, Inc., priority 2011, dated 2014)
# Legend:
# [1] = Solubility in MeOH (chiral preparative HPLC data); format: physicochemical; conditions: sample for chiral preparative HPLC
# Protocol: For chiral separations, samples were dissolved in MeOH and EtOH according to the solubility of sample and filtered through 0.22μ. PTFE filters. The columns used were […]-AD; 20*250 mm, 10μ and […]-ODH; 20*250 mm, 5μ. A flow rate of 12 mL/min-17 mL/min was used according to the resolution. Alkanes such as n-Pentane, Hexane and Heptane (40%-95%) and alcohols such as EtOH, Isopropyl alcohol and t-Butanol (5%-60%) were used as mobile phase. In some cases alcohol combinations i.e. (EtOH+MeOH), (EtOH+IPA), (IPA+MeOH), (t-Butanol+MeOH), (t-Butanol+EtOH) were used instead of a single alcohol. Diethyl amine (up to 0.3%) was used as modifier in the mobile phase.
# Column: Chiralcel OD-H. Column ID: 20*250 mm, 5μ. Mobile Phase:Hexane: (EtOH:MeOH 80:20)−95:5. Flow rate: 15 mL/min. Solubility: 30 mg/mL in MeOH.
# Column: Chiral PAK-AD-H. Column ID: 20*250 mm, 5μ. Mobile Phase:Hexane (0.2% diethylamine):Isopropanol−93:7. Flow rate: 15 mL/min. Solubility: 40 mg/mL in MeOH.
# [2] = target: T1, human recombinant adrenergic α2B receptor (Homo sapiens, UniProt P18089); experiment: Radioligand binding, adrenergic α2B ([3H]Rauwolscine); conditions: compound at 0.03 μM; [3H]Rauwolscine; repeat datapoints each shown; 0.03 µM
# T1 construct: expressed in transfected cells; host or cells: CHO-K1
# T1 sequence (P18089 1-450): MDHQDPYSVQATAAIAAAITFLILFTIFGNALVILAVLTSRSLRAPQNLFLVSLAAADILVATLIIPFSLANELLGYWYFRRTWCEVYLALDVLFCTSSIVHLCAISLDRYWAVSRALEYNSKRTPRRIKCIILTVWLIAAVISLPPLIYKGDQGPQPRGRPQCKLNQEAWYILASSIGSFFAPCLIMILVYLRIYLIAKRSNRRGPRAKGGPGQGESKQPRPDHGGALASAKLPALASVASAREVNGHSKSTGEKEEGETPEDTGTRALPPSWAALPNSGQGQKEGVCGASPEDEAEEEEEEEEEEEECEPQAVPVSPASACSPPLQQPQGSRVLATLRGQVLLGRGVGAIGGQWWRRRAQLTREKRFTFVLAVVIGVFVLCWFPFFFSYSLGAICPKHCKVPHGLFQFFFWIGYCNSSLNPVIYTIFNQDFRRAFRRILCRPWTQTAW
# Outline: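 Membranes from CHO-K1 cells expressing human recombinant α2B, in 50 mM Tris-HCl pH 7.4, 12.5 mM MgCl2, 1 mM EDTA, 0.2% BSA, incubated with compound and 2.5 nM [3H]Rauwolscine, 60 min, 25 °C.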
# [3] = target: T2, human recombinant adrenergic α2A receptor (Homo sapiens, UniProt P08913); experiment: Radioligand binding, adrenergic α2A ([3H]MK-912); conditions: compound at 0.1 μM; [3H]MK-912; repeat datapoints each shown; 0.1 µM
# T2 construct: expressed in transfected cells; host or cells: insect Sf9 cells
# T2 sequence (P08913 1-465): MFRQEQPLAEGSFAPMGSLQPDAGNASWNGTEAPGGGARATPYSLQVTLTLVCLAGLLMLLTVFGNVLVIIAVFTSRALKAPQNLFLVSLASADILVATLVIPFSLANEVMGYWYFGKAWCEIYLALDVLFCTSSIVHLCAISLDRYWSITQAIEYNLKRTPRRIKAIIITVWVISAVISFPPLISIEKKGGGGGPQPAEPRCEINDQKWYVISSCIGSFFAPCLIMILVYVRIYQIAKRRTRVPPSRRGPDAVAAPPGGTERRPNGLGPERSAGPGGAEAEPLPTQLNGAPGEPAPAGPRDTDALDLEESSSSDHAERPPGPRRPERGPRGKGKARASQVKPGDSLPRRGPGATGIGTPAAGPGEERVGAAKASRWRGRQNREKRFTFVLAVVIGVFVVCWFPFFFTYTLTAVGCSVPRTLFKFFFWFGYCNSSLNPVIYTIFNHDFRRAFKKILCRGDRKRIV
# Outline: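 Displacement of 1 nM [3H]MK-912 from receptor produced in insect Sf9 cells was measured after 60 min at 25 °C. Readout: percent inhibition of specific binding.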
# [4] = target: T3, rat adrenergic α1B receptor (Rattus norvegicus, UniProt P15823); experiment: Radioligand binding, adrenergic α1B ([3H]Prazosin); conditions: compound at 0.1 μM; [3H]Prazosin; repeat datapoints each shown; 0.1 µM
# T3 construct: rat adrenergic α1B receptor obtained from Wistar Rat liver; from tissue; host or cells: Wistar rat liver
# T3 sequence (P15823 1-515): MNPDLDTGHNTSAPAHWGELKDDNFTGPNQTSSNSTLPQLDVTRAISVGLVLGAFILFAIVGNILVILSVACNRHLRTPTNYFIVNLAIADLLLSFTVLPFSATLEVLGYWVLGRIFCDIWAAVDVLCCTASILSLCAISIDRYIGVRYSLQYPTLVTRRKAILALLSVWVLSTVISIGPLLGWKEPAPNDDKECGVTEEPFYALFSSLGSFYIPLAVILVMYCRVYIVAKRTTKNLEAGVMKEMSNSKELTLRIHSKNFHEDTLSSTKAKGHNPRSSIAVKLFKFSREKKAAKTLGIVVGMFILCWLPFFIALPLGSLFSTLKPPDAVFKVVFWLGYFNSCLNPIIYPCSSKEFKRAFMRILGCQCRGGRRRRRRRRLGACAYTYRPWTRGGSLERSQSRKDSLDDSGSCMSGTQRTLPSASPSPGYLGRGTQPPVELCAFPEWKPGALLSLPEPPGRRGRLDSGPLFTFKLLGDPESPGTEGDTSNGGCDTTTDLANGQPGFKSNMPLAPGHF
# Outline: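 Specific binding, taken as total minus that remaining with 10 μM phentolamine, is measured after filtration and counting. Rat liver receptor preparation and 0.25 nM [3H]prazosin are incubated with compound in 50 mM Tris-HCl (pH 7.4, 0.5 mM EDTA) at 25° C for 60 min. Activity is reported as percent inhibition.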
Solubility [1] [mg/mL],"Percentage inhibition of ligand binding, Adrenergic α2B (0.03 μM) [2] [%]","Percentage inhibition of ligand binding, Adrenergic α2A (0.1 μM) [3] [%]","Percentage inhibition of ligand binding, Adrenergic α1B (0.1 μM) [4] [%]",Compound
30,63,−8,61,"Cc1cnc2c(c1)c1c(n2CC(C)(O)c2ccc(F)cc2)CCN(C)C1 (single isomer, unassigned) [138a]"
30,25,4,22,"Cc1cnc2c(c1)c1c(n2CC(C)(O)c2ccc(F)cc2)CCN(C)C1 (single isomer, unassigned) [138b]"
